Test results taken from patent US20260184669A1, “LIPID COMPOUND AND COMPOSITION FOR DELIVERY OF ACTIVE SUBSTANCE” (KOREA RESEARCH INSTIUTE OF BIOSCIENCE AND BIOTECHNOLOGY, priority 2022, published 2026).

Assays:
[1] = system: CCL2 mRNA level in HEK-293T cells
[2] = system: IL-6 mRNA level in HEK-293T cells
[3] = Stability of mRNA-LNPs according to storage temperature and duration; type: physicochemical; details: for Normalized EE % D-7 / PDI D-7 / Size (nm) D-7: day 7; for Normalized EE % D-30 / PDI D-30 / Size (nm) D-30: day 30
Procedure: Stability of fLuc mRNA-LNPs produced using various ionizable lipids according to the method of Example 27, was assessed by storing the LNPs at 4° C. and 25° C. At 1, 7, and 30 days post-manufacture, the size, PDI, and encapsulation efficiency (EE) of each mRNA-LNPs samples were measured using the methods described in Experimental Examples 2 and 3.

[4] = fLuc mRNA-LNP stored at 4° C., day 1
[5] = fLuc mRNA-LNP stored at 25° C., day 1

## CCCCC/C=C\C/C=C\CCCCCCCCC(CCCCCCCC/C=C\C/C=C\CCCCC)OC(=O)CCCN(C)C [MC3, DLin-MC3-DMA, reference compound]
[1]
  CCL2 Average: 1.15
[2]
  IL-6 Average: 1.27
[3]; [4]
  Normalized EE % D-1: 95.0%
  Size (nm) D-1: 92.8 nm
[3]; fLuc mRNA-LNP stored at 4° C.
  Normalized EE % D-7: 94.0%
  PDI D-7: 0.060
  Size (nm) D-7: 128.7 nm
  Normalized EE % D-30: 90.4%
  PDI D-30: 0.142
  Size (nm) D-30: 125.6 nm
[3]; [5]
  Normalized EE % D-1: 95.0%
  PDI D-1: 0.174
  Size (nm) D-1: 92.8 nm
[3]; fLuc mRNA-LNP stored at 25° C.
  Normalized EE % D-7: 90.8%
  PDI D-7: 0.110
  Size (nm) D-7: 123.0 nm
  Normalized EE % D-30: 88.3%
  PDI D-30: 0.123
  Size (nm) D-30: 119.3 nm
